Here are results for two compounds from ChEMBL document CHEMBL5705903, “A DNA Hypomethylation Signature Predicts Antitumor Activity of LSD1 Inhibitors in SCLC” (Cancer Cell, 2015).

The source made the active and inactive calls. No cut-off for these calls is given here.

A short description of data set [1]: Effect on cleaved PARP level in human NCI-H1694 cells assessed as fold change at 10 nM measured after 14 days by Western blot analysis (reference value: 1.00). The class given is functional. Particulars: time 14 day.
The nature of data set [2]: Effect on cleaved PARP level in human NCI-H69 cells assessed as fold change at 10 nM measured after 14 days by Western blot analysis (reference value: 1.00). The class given is functional. Particulars: time 14 day.
Data set [3] in a line: Effect on cleaved PARP level in human NCI-H69 cells assessed as fold change at 10 nM measured after 7 days by Western blot analysis (reference value: 1.00). The class given is functional. Conditions: time 7 day. In general terms: In western blotting, separated proteins are transferred to a membrane and probed.
Data set [4] in a line: Antitumor activity against human PDX L48 cells xenografted in mouse assessed as tumor growth inhibition at 1.5 mg/kg administered daily measured for 16 days relative to control. The class given is functional. Particulars: PDX LX48, 384 h, time 16 day, read-out: TGI.
The nature of data set [5]: Effect on cleaved PARP level in human NCI-H69 cells assessed as fold change at 1000 nM measured after 14 days by Western blot analysis (reference value: 1.00). The class given is functional. Particulars: time 14 day.
A short description of data set [6]: Effect on cleaved PARP level in human NCI-H510 cells assessed as fold change at 1000 nM measured after 7 days by Western blot analysis (reference value: 1.00). The class given is functional, NCI-H510A. Particulars: time 7 day.
Data set [7] can be described thus: Toxicity in dog assessed as thrombocytopenia measured for 28 days. Also noted: species or system Canis lupus familiaris. Conditions: in vivo, 672 h, time 28 day.
A short description of data set [8]: Effect on cleaved PARP level in human NCI-H526 cells assessed as fold change at 10 nM measured after 7 days by Western blot analysis (reference value: 1.00). The class given is functional. Conditions: time 7 day.
The nature of data set [9]: Effect on cleaved PARP level in human COLO-668 cells assessed as fold change at 1000 nM measured after 7 days by Western blot analysis (reference value: 1.00). The class given is functional. Conditions: time 7 day.
In the next data set the test system is COLO-668. The experiment in a line: Effect on NCAM gene expression in human COLO-668 cells at 1 uM measured after 4 days by qRT-PCR analysis. The class given is functional, cell-based. Particulars: time 4.0 day. A general note: Quantitative PCR measures a nucleic acid by following its amplification.
Data set [10] in a line: Effect on cleaved PARP level in human NCI-H889 cells assessed as relative expression at 100 nM measured after 14 days by Western blot analysis (reference value: 0.94). The class given is functional. Conditions: time 14 day.
The test system of another data set is NCI-H2171. Nature of the data set: Antitumor activity against human NCI-H2171 cells xenografted in nude mouse assessed as tumor growth inhibition at […] mg/kg, po administered daily measured twice weekly relative to control. The class given is functional. Particulars: read-out: TGI. (In general: Xenograft models place foreign cells or tissue in a host animal.)

The nature of data set [11]: Effect on cleaved PARP level in human NCI-H526 cells assessed as relative expression at 10 nM measured after 14 days by Western blot analysis (reference value: 0.66). The class given is functional. Conditions: time 14 day.
Data set [12] concerns NCI-H526. The experiment in a line: Antitumor activity against human NCI-H526 cells xenografted in nude mouse assessed as tumor growth inhibition at 0.5 mg/kg, po administered daily measured twice weekly relative to control. The class given is functional. Conditions: read-out: TGI.
Another data set concerns NCI-H69. Nature of the data set: Antitumor activity against human NCI-H69 cells xenografted in nude mouse assessed as tumor growth inhibition at 0.5 mg/kg, po administered daily measured twice weekly relative to control. The class given is functional. Conditions: read-out: TGI.
A short description of data set [13]: Toxicity in dog assessed as suppression of platelet in bone marrow measured for 28 days. The class given is cell-based, Canis lupus familiaris. Conditions: 672 h, time 28 day.
The test system of data set [14] is NCI-H526. Nature of the data set: In vivo inhibition of LSD1 in human NCI-H526 cells xenografted in nude mouse assessed as change in UMODL1 gene expression measured after 24 hrs post single administration by qRT-PCR analysis. The class given is functional, organism-based. Conditions: dose 0.06-135 mg/kg.
Data set [15] is described as follows: Effect on cleaved PARP level in human NCI-H1694 cells assessed as relative expression at 1000 nM measured after 10 days by Western blot analysis (reference value: .31). The class given is functional. Particulars: time 10 day.
Data set [16] is described as follows: Effect on cleaved PARP level in human COLO-668 cells assessed as fold change at 100 nM measured after 7 days by Western blot analysis (reference value: 1.00). The class given is functional. Conditions: time 7 day.
Data set [17] is described as follows: Effect on cleaved PARP level in human NCI-H889 cells assessed as relative expression at 10 nM measured after 10 days by Western blot analysis (reference value: 0.33). The class given is functional. Particulars: time 10 day.
Data set [18] in a line: Effect on cleaved PARP level in human NCI-H889 cells assessed as relative expression at 10 nM measured after 7 days by Western blot analysis (reference value: 0.34). The class given is functional. Conditions: time 7 day.
Data set [19] can be described thus: Effect on cleaved PARP level in human NCI-H146 cells assessed as relative expression at 100 nM measured after 7 days by Western blot analysis (reference value: […]). Particulars: time 7 day. The class given is functional.
A short description of data set [20]: Effect on cleaved PARP level in human NCI-H146 cells assessed as fold change at 10 nM measured after 10 days by Western blot analysis (reference value: 1.00). Particulars: time 10 day. The class given is functional.
Data set [21] is described as follows: Effect on cleaved PARP level in human NCI-H146 cells assessed as fold change at 100 nM measured after 7 days by Western blot analysis (reference value: 1.00). The class given is functional. Particulars: time 7 day.
Data set [22] in a line: Effect on cleaved PARP level in human NCI-H2171 cells assessed as fold change at 100 nM measured after 7 days by Western blot analysis (reference value: 1.00). The class given is functional. Conditions: time 7 day.
The nature of data set [23]: Half life in mouse tumor at 5 mg/kg, po by HPLC/MS/MS analysis. The class given is ADME, organism-based, Neoplasm.
The nature of data set [24]: Effect on cleaved PARP level in human NCI-H526 cells assessed as fold change at 100 nM measured after 14 days by Western blot analysis (reference value: 1.00). The class given is functional. Conditions: time 14 day.
The subject of a further data set is NCI-H510A. Nature of the data set: Antitumor activity against human NCI-H510A cells xenografted in nude mouse assessed as tumor growth inhibition at 1.5 mg/kg, po administered daily measured twice weekly relative to control. The class given is functional. Conditions: read-out: TGI.
Data set [25] is described as follows: Effect on cleaved PARP level in human NCI-H524 cells assessed as relative expression at 100 nM measured after 14 days by Western blot analysis (reference value: […]). The class given is functional. Conditions: time 14 day.
Data set [26] is described as follows: Effect on cleaved PARP level in human NCI-H2171 cells assessed as relative expression at 1000 nM measured after 14 days by Western blot analysis (reference value: 0.01). The class given is functional. Conditions: time 14 day.
The nature of data set [27]: Effect on cleaved PARP level in human NCI-H510 cells assessed as relative expression at 100 nM measured after 7 days by Western blot analysis (reference value: 0.24). The class given is functional, NCI-H510A. Conditions: time 7 day.
Data set [28] can be described thus: Effect on cleaved PARP level in human COLO-668 cells assessed as relative expression at 1000 nM measured after 7 days by Western blot analysis (reference value: […]). Particulars: time 7 day. The class given is functional.
Data set [29] in a line: Effect on cleaved PARP level in human COLO-668 cells assessed as relative expression at 100 nM measured after 7 days by Western blot analysis (reference value: […]). The class given is functional. Particulars: time 7 day.
Data set [30] is described as follows: Effect on cleaved PARP level in human NCI-H146 cells assessed as fold change at 10 nM measured after 14 days by Western blot analysis (reference value: 1.00). The class given is functional. Particulars: time 14 day.
Data set [31] relates to NCI-H526. The experiment in a line: In vivo inhibition of LSD1 in human NCI-H526 cells xenografted in nude mouse assessed as change in ANXA6 gene expression measured after 24 hrs post single administration by qRT-PCR analysis. The class given is functional, organism-based. Conditions: dose 0.06-135 mg/kg.
Data set [32] deals with 3',5'-cyclic-AMP phosphodiesterase 4B (Homo sapiens, UniProt Q07343). Nature of the data set: Inhibition of PDE4B (unknown origin).
Sequence of 3',5'-cyclic-AMP phosphodiesterase 4B (Q07343 whole entry): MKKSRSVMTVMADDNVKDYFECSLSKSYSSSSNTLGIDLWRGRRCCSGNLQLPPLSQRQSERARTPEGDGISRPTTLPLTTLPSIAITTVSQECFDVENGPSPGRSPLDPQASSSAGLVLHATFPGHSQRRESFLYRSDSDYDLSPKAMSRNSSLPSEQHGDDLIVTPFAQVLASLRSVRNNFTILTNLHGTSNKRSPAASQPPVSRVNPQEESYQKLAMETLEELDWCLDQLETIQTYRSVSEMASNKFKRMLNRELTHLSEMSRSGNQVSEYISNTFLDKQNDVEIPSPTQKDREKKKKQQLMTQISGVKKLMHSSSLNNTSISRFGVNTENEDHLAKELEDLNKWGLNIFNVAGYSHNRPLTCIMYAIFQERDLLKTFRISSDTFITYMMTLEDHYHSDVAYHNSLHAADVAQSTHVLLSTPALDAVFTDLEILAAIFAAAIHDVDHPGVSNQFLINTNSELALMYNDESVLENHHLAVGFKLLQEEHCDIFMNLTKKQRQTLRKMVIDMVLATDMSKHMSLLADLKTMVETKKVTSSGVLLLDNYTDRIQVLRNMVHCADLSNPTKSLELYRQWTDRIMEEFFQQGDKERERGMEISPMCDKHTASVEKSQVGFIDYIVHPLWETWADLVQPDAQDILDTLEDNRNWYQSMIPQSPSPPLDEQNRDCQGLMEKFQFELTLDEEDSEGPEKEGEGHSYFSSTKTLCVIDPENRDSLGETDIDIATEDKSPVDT

In general, half-life refers to the time in which the quantity being followed falls by half. A high value points to slow loss. With `O=C(O)c1ccc(CN2CCC(CN[C@@H]3C[C@H]3c3ccccc3)CC2)cc1` [GSK2879552], the “fold change (FC)” value in [1] is given as 0.85; in data set [2], 1.66; in data set [3] it was 1.26; in data set [5] it was 5.16; in [6] it was 2.06; in data set [8], 0.85. Further, the “fold change (FC)” value was 0.95 in [9]; 1.06 in data set [16]; 1.24 in [20]; 1.02 in [21]; 1.71 in data set [22]; 1.41 in [24]. For the same compound, the “fold change (FC)” value in data set [30] is reported as 0.64. Also, the inhibition in vivo at 1.5 mg/kg in data set [4] was 74%; in the data set with NCI-H510A, 38%. Further, the Activity result in data set [7] is “Toxic”; in [10], 2.36; in [11], 0.48; in [13], “Toxic”; in data set [15], 0.22; in [17] it was 0.55. For the same compound, the Activity in data set [18] worked out at 0.03; in data set [19] it was 2.21; in [25], 1.13; in data set [26] it was 0.02; in data set [27] it was 0.43; in data set [28], 1.36. Besides, in data set [29], the Activity turned out to be 1.52. Also, the outcome with COLO-668 was inactive. Also, in the data set on NCI-H2171, the inhibition in vivo at 1.25 mg/kg is 37%. Besides, the inhibition in vivo at 0.5 mg/kg in the data set on NCI-H526 [12] was found to be 48%; in the data set on NCI-H69 it was 51%. In addition, the inhibition entry in the data set with NCI-H526 [14] and with NCI-H526 [31] was “Dose-Dependent Effect” throughout. This compound also gave a half-life in data set [23] of 8.4 h.
The term IC50 denotes the midpoint of a concentration-inhibition curve. Low values mean inhibition by little substance, high ones a need for much substance. The compound `c1ccc([C@@H]2C[C@H]2NC2CCNCC2)cc1` yielded an IC50 in data set [32] of more than 100 µM.
